Tested on: IFNγ secretion in whole blood stimulated with heat-killed Staphylococcus epidermidis
Assay: in vitro whole blood assay stimulated with Staphylococcus epidermidis, measuring IFNγ
Format: cell-based
Settings: 24 hours; for inhibitory activity of IFNg secretion resulting from Staphylococcus epidermidis stimulation: IFNγ by ELISA; for IFNγ concentration: at 62.5 nMol test compound, cut from 4500 pg/ml; for inhibition of IFNγ: lowest concentration of 62.5 nMol
Description: The following experimental work illustrates the invention. This involves an in vitro whole blood assay stimulated with Staphylococcus epidermidis, measuring IFNγ. IFNγ as a key mediator in pathological processes in ocular inflammatory disease, namely age-related macular degeneration (Penfold et al, 2002) and proliferative vitreoretinopathy (El-Ghrably et al, 2001). 1:100 diluted heat-killed Staphylococcus epidermidis in conjunction with various concentrations of test compound (in a stock DMSO solution) was added to a 100-fold volume of whole blood. After 24 hours, whole blood was diluted 1:4 and IFNγ was measured by enzyme-linked immuno-absorptive assay.

SMILES: CC(C(O)c1ccc(O)cc1)N1CCC(Cc2ccccc2)CC1 (racemic) [ifenprodil erythro racemate, ifenprodil]
- inhibitory activity of IFNg secretion resulting from Staphylococcus epidermidis stimulation: strong inhibitory activity
- IFNγ concentration: 1500 pg/mL
- inhibition of IFNγ: 66%

SMILES: CC(NCCc1ccc(O)cc1)C(O)c1ccc(O)cc1 (racemic) [ritodrine racemate, ritodrine]
- inhibitory activity of IFNg secretion resulting from Staphylococcus epidermidis stimulation: strong inhibitory activity
- IFNγ concentration: 1500 pg/mL
- inhibition of IFNγ: 66%

— US20090137686A1, “Treatment of Ophthalmic Diseases” (priority 2005, published 2009)
